We go through 13 compounds from article PMC8296573, “Synthesis and Biological Evaluation of Fingolimod Derivatives as Antibacterial Agents” (ACS Omega, 2021).

Converted amounts (≈) assume the structure as drawn. Like-named read-outs stand apart in the source and are kept apart here. A value given as a limit tells only on which side of the number the result lay.

Type in all cases: cell-based, Staphylococcus aureus
One assay relates to S. aureus ATCC 25923. Description: Antibacterial activity, pre-exposure (planktonic cells and biofilm formation). Particulars: for MIC: Staphylococcus aureus, ATCC25923, read-out: MIC (S. aureus); for Initial screening result (active = at least 60% inhibition of planktonic cells and biofilm formation): 50 μM, S. aureus. Here is the method:
(§1) The antimicrobial activity was assessed in a similar way for the initial screening and the dose–response evaluation against different bacterial strains. With the exception of the post-exposure experiment, the compounds were added to the wells along with the bacteria to test the ability of compounds to prevent bacterial growth and biofilm formation (pre-exposure). The compounds were diluted in DMSO and plated directly in 96-well plates before adding the bacterial culture, and plates were incubated for 18 h under aerobic conditions at 37 °C with shaking (220 rpm). The antibacterial activity of the compounds was assessed on planktonic cells and biofilms separately using two different measurements for each: optical density (turbidity) and resazurin reduction (viability) on planktonic cells and resazurin followed by a crystal violet staining assay (total biomass) on biofilms, as described in the following sections.
(§2) The resazurin staining was performed according to the protocol previously optimized with a few modifications.[46] Briefly, the planktonic solution was first transferred into a new 96-well plate and the OD of the planktonic solution was measured using a Varioskan LUX Multimode microplate reader (Thermo Scientific, Vantaa, Finland). Then, 10 μL of a 400 μM resazurin (R7017, Sigma-Aldrich, St. Louis, MO) diluted in phosphate-buffered saline (PBS) (Thermo Fisher Scientific, MA) was added to the wells (for a final resazurin concentration of 20 μM). The plate was incubated in the dark with shaking (220 rpm) for about 3–10 min at room temperature with S. aureus and A. baumannii (until the bacteria controls turned pink) or for 20 min at 37 °C with P. aeruginosa. Fluorescence was measured at λex = 560 nm and λem = 590 nm using the top optics of the Varioskan LUX Multimode microplate reader. The planktonic plate was then discarded. The original challenge plate containing the biofilms was washed once with PBS, and 200 μL of a 20 μM resazurin solution was added to the wells. The plate was incubated in the dark at 37 °C with shaking (220 rpm) for 30 min with S. aureus, 60 min with A. baumannii, and 90 min with P. aeruginosa. Fluorescence was measured as described for the planktonic solution. The biofilms were next treated with crystal violet staining.
(§3) After removing the resazurin solution from the plate, biofilms were fixed with ethanol 100% for 15 min at room temperature. Ethanol was then removed, and the biofilms were left to air-dry completely at RT. Crystal violet, diluted to 1:100 in deionized water from the 2.3% commercial solution (HT90132, Sigma-Aldrich, St. Louis, MO), was added to the wells and, after a 5 min incubation with the dye, the biofilms were washed twice with deionized water and left to air-dry for about 10 min. The dye was solubilized in ethanol 100% for 1 h, and absorbance was measured at 595 nm using a Multiskan Sky microplate spectrophotometer (Thermo Scientific, Vantaa, Finland).

The test system of another assay is S. aureus ATCC 12598. The experiment in a line: Antibacterial activity, pre-exposure. Particulars: S. aureus ATCC 12598, pre-exposure, 50 µM, ± SD; for inhibition at 50 µM: Staphylococcus aureus, ATCC12598. Here is the method:
as §1, §2, §3

The next assay deals with S. aureus P2. Description: Antibacterial activity, pre-exposure. Particulars: S. aureus P2, pre-exposure, 50 µM, ± SD; for inhibition at 50 µM: Staphylococcus aureus. How it is done: as §1, §2, §3
Setting [1] is: read-out: Average inhibition %, biofilms biomass.
The mark [2] stands for this setting: read-out: Average inhibition %, planktonic cells turbidity.

What is called inhibition is the share of the control response that was lost under treatment.

As to `NC(CO)(CO)CCc1ccc(-c2ccc(OCc3ccccc3)cc2)cc1` [Compound 14, 2-Amino-2-[2-[4′-(benzyloxy)-[1,1′-biphenyl]-4-yl]ethyl]propane-1,3-diol], the MIC in the assay with S. aureus ATCC 25923 is > 100 µM.

Consider `COc1ccc(-c2ccc(CCC(N)(CO)CO)cc2)cc1OC` [Compound 13, 2-Amino-2-[2-(3′,4′-dimethoxy-[1,1′-biphenyl]-4-yl)ethyl]propane-1,3-diol], for which, in the assay on S. aureus ATCC 25923, the MIC was > 100 µM.

As to `NC(CO)(CO)CCc1ccc(OCc2ccc3ccc(Cl)cc3n2)cc1` [Compound 28, 2-Amino-2-[4-[(7-chloroquinolin-2-yl)methoxy]phenethyl]propane-1,3-diol], the MIC in the assay on S. aureus ATCC 25923 was > 100 µM.

On to `NC(CO)(CO)CCc1ccc(Cc2ccccc2)cc1` [Compound 12, 2-Amino-2-(4-benzylphenethyl)propane-1,3-diol], for which the MIC with S. aureus ATCC 25923 was > 100 µM.

Regarding `NC(CO)(CO)CCc1ccc(OCc2ccccc2)cc1` [Compound 25, 2-Amino-2-[4-(benzyloxy)phenethyl]propane-1,3-diol], the MIC in the assay with S. aureus ATCC 25923 is > 100 µM.

With `CC1(C)S[C@@H]2[C@H](NC(=O)Cc3ccccc3)C(=O)N2[C@H]1C(=O)O` [Penicillin-G, reference compound], the “Average inhibition %, biofilms viability” value was 97.5 ± 1.5% in the assay on S. aureus ATCC 12598 and 9.5 ± 9.8% in the assay on S. aureus P2. The “Average inhibition %, planktonic cells viability” value was found to be 99.7 ± 0% with S. aureus ATCC 12598 and 14.9 ± 10.3% in the assay with S. aureus P2. The inhibition at 50 µM in the assay with S. aureus ATCC 12598 (setting [1]) was found to be 95.8 ± 1%; with S. aureus ATCC 12598 (setting [2]), 99.7%; with S. aureus P2 (setting [1]), 17.4 ± 13.2%; in the assay with S. aureus P2 (setting [2]), 12.2 ± 14.5%.

Take `CCCCCCCCc1ccc(CCC(N)(CO)CO)nc1` [Compound 61, 2-Amino-2-[2-(5-octylpyridin-2-yl)ethyl]propane-1,3-diol]: in the assay with S. aureus ATCC 25923, the “Initial screening result (active = at least 60% inhibition of planktonic cells and biofilm formation)” value was “did not show an inhibitory activity comparable to fingolimod”; the MIC turned out to be 100 µM (≈ 30.8 µg/mL).

Take `NC(CO)(CO)CCc1ccc(OCc2ccc(C(F)(F)F)nc2)cc1` [Compound 27]: the MIC in the assay with S. aureus ATCC 25923 is > 100 µM.

For the compound `NC(CO)(CO)CCc1ccc2ccccc2n1` [Compound 33, 2-Amino-2-[2-(quinolin-2-yl)ethyl]propane-1,3-diol], the MIC with S. aureus ATCC 25923 is > 100 µM.

Consider `CCCCc1ccc(COc2ccc(CCC(N)(CO)CO)cc2)cc1` [Compound 29, 2-Amino-2-[4-[(4-butylbenzyl)oxy]phenethyl]propane-1,3-diol], for which the MIC in the assay with S. aureus ATCC 25923 was > 100 µM.

On to `NC(CO)(CO)CCc1ccc(OCc2ccc(C(F)(F)F)cc2)cc1` [Compound 26, 2-Amino-2-[4-[[4-(trifluoromethyl)benzyl]oxy]phenethyl]propane-1,3-diol], for which, in the assay with S. aureus ATCC 25923, the MIC was > 100 µM.

As to `CCCCCCc1ccc(CCC(N)(CO)CO)cc1` [Compound 10, 2-Amino-2-(4-hexylphenethyl)propane-1,3-diol], in the assay on S. aureus ATCC 25923, the “Initial screening result (active = at least 60% inhibition of planktonic cells and biofilm formation)” value is given as “only limited activity against S. aureus biofilms”; the MIC is 100 µM (≈ 27.9 µg/mL).

With `NC(CO)(CO)CCc1ccc(/C=C/Cc2ccccc2)cc1` [Compound 16, (E)-2-Amino-2-[4-(3-phenylprop-1-en-1-yl)phenethyl]propane-1,3-diol], the MIC in the assay on S. aureus ATCC 25923 was > 100 µM.
